Test results from patent US9234038B2, “Compositions and method for the diagnosis, prevention and treatment of alzheimer's disease” (Seoul National University Industry Foundation, priority 2007, dated 2016).
“Also recorded” adds a separate entry of the source.

Experiments:
BALB/c mice [1] = assay: Memory test (Y-maze, passive avoidance) after i.c.v. Aβ; assay type: in vivo, mouse; conditions: i.c.v. injection of Aβ 410 pmole plus peptide, tests after one day
Protocol: Tg2576 mice were not used in this test because it takes a lot of time to breed the animals, and they are expensive. Instead, normal mice were used in this memory test because the same AD symptoms as in Tg2576 mice were observed when Aβ was injected into the brains of normal mice. Normal BALB/c mice were injected intracerebroventricularly (i.c.v.) with Aβ (1.855 μg/5 μl, 410 pmole) alone or in combination with a specific peptide. After one day, a Y-maze test and a passive avoidance test were performed. Memory was assessed as described in Yan et al., Br. J. Pharmacol, 133:89-96, 2001.

FcγRIIb-CD40 chimera = target: T1, FcγRIIb-CD40 chimera (UniProt P25942+Q63203); assay: FcγRIIb-CD40 chimera NF-κB luciferase assay of Aβ binding; assay type: cell-based, rat; conditions: Aβ 5 μM
T1 construct: an extracellular domain of FcγRIIb was genetically fused to CD40, consisting of a transmembrane domain and a cytoplasmic domain; human CD40 transmembrane and cytoplasmic domains (fusion partner); expressed in transfected cells; host or cells: NIH3T3
T1 sequence (Q63203+P25942 with tags, fused parts or gaps): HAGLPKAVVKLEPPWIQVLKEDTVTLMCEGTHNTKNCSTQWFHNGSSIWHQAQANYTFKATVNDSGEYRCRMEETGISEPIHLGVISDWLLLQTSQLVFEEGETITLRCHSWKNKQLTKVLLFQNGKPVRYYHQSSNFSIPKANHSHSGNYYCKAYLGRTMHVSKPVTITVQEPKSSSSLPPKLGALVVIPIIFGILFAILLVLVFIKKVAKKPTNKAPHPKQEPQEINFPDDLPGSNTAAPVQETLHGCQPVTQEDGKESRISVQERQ
Text: In order to investigate whether FcγRIIb binds to Aβ in a specific manner, an extracellular domain of FcγRIIb was genetically fused to CD40, consisting of a transmembrane domain and a cytoplasmic domain. The resulting FcγRIIb-CD40 fusion gene was expressed in NIH3T3 cells to increase NF-κ B activity, a signal transducer of CD40, when the fusion protein binds to Aβ. The chimeric gene was constructed as follows. A rat FcγRIIb extracellular region and human CD40 transmembrane and cytoplasmic domains were amplified by performing PCR with FcγRIIb-ED-5′-NheI primer (5′-[…]-3′: SEQ ID No. 15), FcγRIIb-ED-3′-HindIII primer (5′-[…]3′: SEQ ID No. 16), CD40-TM+cyto-5′ primer (5′-[…]-3′: SEQ ID No. 17), and CD40-TM+cyto-3′ primer (5′-[…]-3′: SEQ ID No. 18). PCR products were inserted into a pEGFP-N1 vector according to the same method as in Example 3. Cells were transfected with the chimeric gene, CD40, TNFRI, pcDNA3 (mock) along with an NF-kB-luciferase gene, and were exposed to 5 μM of Aβ or 20 ng/ml of TNF. NF-κ B activity was assessed, as described in Woo et al., FEBS Lett. 578, 239-244, 2004.
Based on the results of Example 10, a sequence spanning from the first to ninth residues from the N-terminus of Aβ, and a 95 to 101 sequence and a 107 to 114 sequence of mouse FcγRIIb, which are Aβ docking sites, were synthesized. Also, peptides, in which a residue involved in Aβ-cγRIIb binding in the above sequences was replaced with alanine, were synthesized. The peptides (wild type and mutant) have the sequences represented by SEQ ID Nos. 19 to 28 (panel a, FIG. 10). The synthesized peptides were individually allowed to react with a mixture of FcγRIIb-CD40 and Aβ (5 μM) or PBS. Then, luciferase activity was measured.

Aβ1-42 = target: T2, Aβ1-42 (Homo sapiens, UniProt P05067); assay: In vitro binding assay (immunoprecipitation, Western blot); conditions: 5 μM Aβ, 20 μg FcγRIIb-ED, 37° C. 3 hrs
T2 construct: subjected to Western blotting to assess the association between FcγRII and Aβ1-42; purchased Sigma
Protocol: 5 μM of Aβ was mixed with 20 μg of FcγRIIb-ED or 20 μg of BSA in vitro, and was incubated at 37° C. for 3 hrs. The reaction mixture was incubated with anti-FcγRIIb polyclonal antibody or anti-GST antibody for 2 hrs, and then with Protein G for 3 hrs (binding solution: 50 mM Tris-HCl, pH 7.4, 1 mM DTT, 0.5 mM EDTA, 0.01% Triton X-100, 0.5 mg/ml bovine serum albumin, 10% (v/v) glycerol, protease inhibitors cocktail, several concentrations of NP-40). The beads were washed three times and subjected to Western blotting to assess the association between FcγRII and Aβ1-42. Western blotting was carried out with K9.361 antibody and anti-Aβ antibody (primary antibody: 71-5800 (Zymed, USA); secondary antibody: goat anti-rabbit IgG conjugated to horseradish peroxidase (Santa Cruz Biotechnology, USA).

[2] = tested on: primary-cultured neuronal cells; assay: Cell survival of Aβ-exposed primary neuronal culture treated with FcγRIIb ED; assay type: cell-based, rat; conditions: 5 μM Aβ 48 hrs, 100 μg FcγRIIb ED, compared to BSA
Protocol: (§1) An FcγRIIb extracellular domain (ED) was purified as described in Sondermann et al., EMBO J, 18:1095-1103, 1999. Neuronal B103 cells or primary-cultured neuronal cells were exposed to 5 μM of Aβ for 48 hrs. Then, cells were treated or not treated with 100 μg of the purified FcγRIIb ED, or treated or not treated with 100 μg of bovine serum albumin (BSA). B103 cells were subjected to Western blotting, which was performed with anti-FcγRIIb antibody as described in Example 2-2. The primary neuronal culture was evaluated for cell survival as described in Example 3.

FcγRIIb = assay: Western blot of FcγRIIb expression in Aβ-exposed B103 cells treated with FcγRIIb ED; assay type: cell-based, rat; conditions: 5 μM Aβ 48 hrs; 100 μg FcγRIIb ED
Protocol: as §1

BALB/c mice [3] = assay: Immunostaining of intraneuronal Aβ accumulation in mouse brain; assay type: in vivo; conditions: mice treated i.c.v. with Aβ plus peptide
Protocol: Brain specimens were prepared from the mice of Example 13 according to the same method as in Example 6. Sections were immunostained with primary antibodies, anti-Aβ antibody (Biosource, USA) plus an antibody to a marker of neurons, anti-neuron specific enolase (NSE) antibody (Axxora, Swiss) or anti-neuron specific nuclear protein (NeuN) antibody (Chemicon, USA), and with secondary antibodies, anti-mouse-FITC antibody (goat anti-mouse IgG conjugated to FITC (Santa Cruz Biotechnology, USA), anti-mouse-TRITC antibody (goat anti-mouse IgG conjugated to TRITC (Santa Cruz Biotechnology, USA), and anti-rabbit-goat-anti-mouse IgG conjugated to horseradish peroxidase (Santa Cruz Biotechnology, USA)).

B103 cells [4] = assay: Viability of siRNA-transfected B103 cells exposed to Aβ; assay type: cell-based, rat; conditions: 5 μM Aβ, 48 hrs
Text: Small interfering RNAs (siRNAs) inhibiting the expression of FcγIIb and receptors for advanced glycation end-product (RAGE), which is known as a cell surface receptor of Aβ, were constructed, and their effects on cell death were compared to each other. A siRNA duplex was formed by hybridizing sense and antisense complementary RNA oligonucleotides, listed in Table 1, below, and was inserted into pSuper-neo (Oligoengine, USA). The siRNA expression vectors thus constructed were individually transfected into B103 cells using lipofectamine (Invitrogen, USA) according to the manufacturer's protocol. The resulting transfected cells were designated “pSuper-neo”, “psiFcγRIIb#1”, “psiFcγRIIb#2”, “psiRAGE#1”, and “psiRAGE#2”. Then, transfected cells were subjected to Western blot analysis. […] Then, the transformed B103 cells were exposed to 5 μM of Aβ or PBS for 48 hrs, and their viability was evaluated. Cell survival was assessed through trypan blue exclusion, Hoechst staining (Sigma, USA), and Annexin V labeling (Promega, USA). The survival of effector cells and cells introduced with pEGFP (Clontech, USA) was determined by observing the morphology of GFP-positive cells under a fluorescence microscope (Leica DMRBE, Germany). Cells were determined to be dead when the cell morphology changed to a spherical shape and the cell membrane was disrupted or destroyed.

B103 cells [5] = assay: Immunostaining of intracellular Aβ accumulation in siRNA-transfected B103 cells; assay type: cell-based, rat; conditions: 100 nM Aβ, 12 hrs
Protocol: psiFcγRIIb #1 cells or psiRAGE #1 cells, prepared in Example 4, were exposed to 100 nM of Aβ or PBS for 12 hrs, and immunostained with anti-Aβ antibody (4G8; Signet, USA) according to the same method as in Example 2-3.

T2 sequence (P05067 672-713): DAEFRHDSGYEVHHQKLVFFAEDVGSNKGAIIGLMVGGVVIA

9: synthesized peptide among SEQ ID Nos. 19 to 28; corresponds to a binding region in Aβ or FcγRIIb; probably SEQ ID No. 27 (RCHSWRNK; Synthetic peptide #9 for interaction inhibitor) [compound 9]
Aβ-induced memory decline (BALB/c mice [1]): strongly reduce; also recorded: restore | NF-κB activation induced through binding of Aβ to FcγRIIb-CD40 (luciferase activity) (FcγRIIb-CD40 chimera): strongly inhibited; also recorded: effectively inhibited

FcγRIIb ED: purified FcγRIIb extracellular domain (SEQ ID No. 33), purified as described in Sondermann et al. 1999
binding of Aβ to FcγRIIb-ED (Aβ1-42): directly bind | Aβ signaling / relative cell viability [2]: completely inhibit | Aβ signaling / relative cell viability ([2]; listed as FcγRIIb extracellular domain): increased to that of cells not exposed to Aβ; also recorded: increase the relative viability of neuronal cells exposed to Aβ to the same level as cells not exposed to Aβ | Aβ-increased expression of FcγRIIb (FcγRIIb): suppressed

peptide #1: synthesized peptide among SEQ ID Nos. 19 to 28; corresponds to a binding region in Aβ or FcγRIIb; probably SEQ ID No. 19 (DAEFRHDSG; Synthetic peptide #1 for interaction inhibitor)
intraneuronal Aβ accumulation in brain (BALB/c mice [3]; listed as #1): disappeared; also recorded: completely inhibited | Aβ-induced memory decline (BALB/c mice [1]; listed as #1): strongly reduce; also recorded: restore | NF-κB activation induced through binding of Aβ to FcγRIIb-CD40 (luciferase activity) (FcγRIIb-CD40 chimera; listed as #1): strongly inhibited; also recorded: effectively inhibited

peptide #7: mutant peptide having an alanine substitution for a residue responsible for Aβ-FcγRIIb binding; among SEQ ID Nos. 19 to 28 (DAEARHASG; Synthetic peptide #7 for interaction inhibitor)
intraneuronal Aβ accumulation in brain (BALB/c mice [3]): strong intraneuronal Aβ staining | Aβ-induced memory decline (BALB/c mice [1]): failed to reverse memory decline | NF-κB activation induced through binding of Aβ to FcγRIIb-CD40 (luciferase activity) (FcγRIIb-CD40 chimera): sharp decrease in inhibitory effects

B1: siRNA against RAGE: siRNA against RAGE, oligomers SEQ ID Nos. 13 and 14, inserted into pSuper-neo (nucleic acid)
sense: GATCCCCGCTCCGGATGAAGAATCAGTTCAAGAGACTGATTCTTCATCCGGAGCTTTTTGGAAA
antisense: AGCTTTTCCAAAAAGCTCCGGATGAAGAATCAGTCTCTTGAACTGATTCTTCATCCGGAGCGGAGTCGGG
modifications: expressed or natural sequence; the letters are possibly those of the target site
Aβ-induced cell death / survival (B103 cells [4]): low survival | intracellular Aβ accumulation (B103 cells [5]): maintained
